From patent US6235891A, “Glucocorticoid receptor agonist and decreased PP5” (South Alabama Medical Science Foundation, priority 1999, dated 2001)

What was measured:
Type in all cases: cell-based, human
A549 cells [1] = experiment: A549 cell proliferation (viable cell counts); conditions: 300 nM, all 5 days
Procedure: A549 cells were treated with ISIS 15534 or its scrambled control, ISIS 15521 at a concentration of 300 nM. Each day for the next 5 days, viable cells were counted.
A549 cells were seeded in 12-well tissue culture plates at about 50% confluence in DMEM containing 10% fetal bovine serum. The next day, cells were treated with the PP5-specific antisense oligonucleotide, ISIS 15534, or its scrambled control, ISIS 15521, at a final concentration of 300 nM as described in Example 7. On each of the following 5 days, cultures from three wells of each treatment gruop were trypsinized, collected and counted. Cell viability was determined by trypan blue staining, and the results given are the mean of three independent experiments.
A549 cells were seeded in 12-well tissue culture plates at a density of 5.0×10^4 cell/dish. On the next day, the cells were treated with PP5 specific antisense oligonucleotides (ISIS 15534) or the scrambled mismatch control (ISIS 15521) at a final concentration of 300 nM as described above. On each of the next five days, the cell cultures were treated briefly with trypsin to detach the cells from the dish (three wells from each test group). The number of cells was then determined by counting using a hemacytometer. Cell viability was determined with trypan blue staining. The percentage of viable cells was calculated by dividing the number of cells excluding trypan blue by the total number of cells, and the results are reported as the mean +/- SD of data collected from three independent experiments.
The antiproliferative effect of dexamethasone correlates with the presence of wild type p53 and the expression of p21^Waf1/Cip1 mRNA. Referring to FIGS. 1A-1C, the effect of dexamethasone on cell proliferation in p53-defective T-24 human bladder carcinoma, p53-null TR9 human fibroblasts (Webster et al. 1993; Maiyar et al. 1996), and p53 wild-type A549 human lung carcinoma cells was determined by treating cells in log-phase growth with a single dose of 100 nM dexamethasone and counting the number of cells in treated (.cndot.) and untreated (.box-solid.) cultures for six consecutive days following treatment. Each point represents the mean of triplicate dishes with error bars representing SE. Under similar conditions, treatment with ISIS 15534, a potent inhibitor of PP5 gene expression, inhibited growth in A459 but not T-24 or TR9 cells (Zuo et al. 1998). Referring to FIG. 1D, a comparison of p21^Waf1/Cip1 (p21) and serum glucocorticoid inducible protein kinase (sgk) mRNA levels in p53 competent (Lanes 3, 4) and p53 deficient (Lanes 1, 2, 5, 6) cell cultures after dexamethasone treatment is shown. Cell cultures in logphase growth were treated with 100 nM dexamethasone (+) or vehicle alone as a control (-). After 24 hours total mRNA was prepared and analyzed for p21 and sgk mRNA levels by Northern analysis.

A549 cells [2] = experiment: [3H]-thymidine incorporation (DNA synthesis) in A549 cells; conditions: 300 nM, all 5 days
Procedure: Cells were pulse-labeled with [^3 H]-thymidine for 5 hours at intervals over the next five days. Cells were lysed and [^3 H]-thymidine incorporation (indicative of DNA synthesis) was determined by liquid scintillation counting.
At timed intervals during the next 5 days, cells were pulse-labeled with [^3 H]-thymidine (0.5 μCi/ml) for 5 hours. […] The results given are the mean of three independent experiments.

PP5 mRNA = experiment: Northern blot analysis of PP5 mRNA expression in A549 cells; conditions: doses of 25 to 500 nM
Text: The oligonucleotides shown in Table 1 were designed using the Genbank sequences HSSERTHRP (Genbank accession number X92121), HSRNAPPP5 (Genbank accession number X89416) and PPP5C (Genbank accession number U25174), synthesized and tested for inhibition of PP5 mRNA expression in A549 cells using a Northern blot assay. All oligonucleotides shown in Table 1 are chimeric oligonucleotides with central 2'-deoxy "gaps," which have phosphorothioate backbones, flanked on both sides by 2'-methoxyethoxy (2'-MOE) "wings" (shown in bold), which have phosphodiester backbones. All cytosines in the 2'-MOE wings are 5-methylcytosines.
In the initial screen, A549 cells were treated with oligonucleotides at a concentration of 300 nM oligonucleotide for four hours in the presence of […] lipofectin. Results were normalized and expressed as a percent of control. The effect of each oligonucleotide on levels of PP5 mRNA, expressed as approximate percent inhibition compared to control, is shown in Table 1. In this initial screen, oligonucleotides giving a reduction of PP5 mRNA of approximately 50% or greater were considered active. […] These sequences (SEQ ID NO: 1, 2, 3, 4, 6, 7 and 12, respectively, SEQ ID Nos shown in bold in Table 1) are therefore preferred.
These oligonucleotides were tested for their ability to reduce PP5 mRNA levels in A549 cells, using oligonucleotide doses of 25 to 500 nM.
The human lung tumor cell line A549 was obtained from the American Type Culture Collection (Rockville Md.) and were grown in DMEM (Gibco BRL, Gaithersburg Md.), supplemented with 10% fetal calf. Cells were seeded on 60 mm plates. When they reached 70% confluency, they were washed with DMEM and 1 ml of DMEM containing 15 μg/ml DOTMA/DOPE (Lipofectin®, GIBCO-BRL) and oligonucleotide at desired concentration was added. Duplicate dishes were used for each treatment condition. After 4 hours of treatment at 37°, cells were washed and cultured in fresh DMEM containing 10% fetal bovine serum for an additional 17 hours. Cells were then harvested and total RNA was extracted with TRIzol Reagent (GIBCO-BRL) according to manufacturer's protocol. Total RNA (20 μg) was fractionated on a 1% agarose gel containing formaldehyde, and transferred to a DURLON-UV (Stratagene) nylon membrane. Following UV crosslinking, the filters were hybridized with the appropriate protein phosphatase probe. The ^32 P-labeled human PP cDNA probes are generated with DECAPrime® DNA Labeling Kit (Ambion) according to the manufacturer's protocol. Hybridization was performed in a hybridization solution containing 50% formamide at 42° for 16 hours. This was followed by two low stringency washes (2×SSC) at room temperature and two high stringency washes (0.1×SSC/0.5% SDS) at 55° C. Hybridization signals were visualized by autoradiography, and filters were then stripped and reprobed with a ^32 P-labeled glyceraldehyde-3-phosphate dehydrogenase (GAPDH) probe to confirm equal loading. The densities of hybridization signals were measured with the NIH Image program (ImagePC).
The cells were harvested, and total RNA was extracted with TRIzol® Reagent according to the methods of the manufacturer. Total RNA (20 μg) was fractionated on 1% agarose gels containing formaldehyde and transferred to DURLON-UV nylon membranes (Stratagene). Following UV cross-linking, the filters were hybridized with a [α^32 P]probe for human PP5. The human PP5 cDNA probe was generated from the full length coding region of PP5 and [α^32 P]-dATP was labeled with DECAprime® DNA Labeling Kit according to the manufacturer's protocol. Hybridization was performed in the presence of 50% formamide, 0.1 M Pipes, 0.8 M NaCl, 5×Denhardt's solution, 100 μg/ml denatured herring sperm DNA, 1×10^6 cpm/ml [α-^32 P]-labeled probe and 10% dextran sulfate at 42° C. for 16 hours. Following hybridization, the membrane was subjected to two low stringency washes (2×SSC) at room temperature and then two high stringency washes (0.1×SSC/0.5% SDS) at 55° C. […]

Substance: ISIS 15521: mismatch (scrambled) control oligonucleotide, phosphodiester wings, phosphorothioate gap; GTGCGATCGTTGCGGTTAGC, SEQ ID NO: 14 (sugars by position and backbone not given here; phosphodiester wings, phosphorothioate gap) [reference compound]
- Proliferation relative to untreated control (A549 cells [1]): approximately equivalent to untreated control
- [3H]-thymidine incorporation relative to untreated control (A549 cells [2]): approximately equivalent to untreated control
- Inhibition of PP5 mRNA levels at any of the doses tested (PP5 mRNA): ≤ 20%
